Laboratory results taken from US8067393B2 (priority 2005, dated 2011).
Where two headings read alike, the source gives them in different places.

What was measured:
ConA [1] = target: T1, ConA (Canavalia ensiformis, UniProt P02866); assay type: binding
Experimental: A PBS-T (0.05%) solution containing glucose, maltose, GlcNAc, galactose, or lactose as a sugar chain at a concentration of 400 mM was prepared.
First, a PBS-T (0.05%) solution containing ConA or RCA120 at a concentration of 2 μM was prepared as a lectin solution, and the lectin solution was introduced to 96-well titer plate by adding 10 μl in each well. Then, a glucose solution, a maltose solution, or a GlcNAc solution was added to a ConA-added well by 20 μl in each well. A galactose solution or a lactose solution was added to a RCA120-added well by 20 μl in each well. The resulting solutions were stirred at a room temperature for 1 hour. […] The resulting solutions were stirred at a room temperature for 1 hour. After the stirring, absorbance of the stirred solutions at 525 nm was measured.
Values below the “after” column are IC50 obtained in a case where the sugar chain was added to an aggregate of the lectin and the colloid solution. Values below the “before” column are IC50 obtained in a case where the colloid solution was added to the admixture of the lectin and the sugar chain.

RCA120 = RCA120 (Ricinus communis, UniProt P06750); assay type: binding, caster bean; set-up: key to Degree of dissociation: ⊚: lectin was completely dissociated; ◯: lectin was almost completely dissociated; Δ: lectin was dissociated with residual sugar-protein interactant (aggregate); X: the lactose-RCA120 interactant kept in aggregated state, and lectin was not dissociated therefrom
ConA [2] = target: T1, ConA; assay: Dissociation of ConA from maltose-ConA interactant by added glucose; assay type: binding; conditions: visual observation
Experimental: 100 μl of PBS-T (0.05%) solution containing ConA at 250 μg/ml was placed in an Eppendorf tube. […] Then, a mixture solution was vortexed for at least 10 seconds. Thereafter, the resulting mixture solution was left for approximately 2 hours, and a sugar-protein interactant was precipitated out of the mixture solution by centrifugation. Then, supernatant thereof was removed, and the sugar-protein interactant was washed with PBS-T (0.05%) solution and water several times. After the washing, 100 μl of 200 mM glucose aqueous solution was added to the sugar-protein interactant, and the resulting mixture solution was left for approximately 1 hour.
First, 25 μl of PBS-T (0.05%) solution containing RCA120 at 250 μg/ml was placed in an Eppendorf tube. To the solution was added 25 μl of the colloid solution of lactose-immobilized gold nanoparticles which was prepared in Example 4. Then, a mixture solution was vortexed for at least 10 seconds. Thereafter, the resulting mixture solution was left for approximately 2 hours, and a sugar-protein interactant (lactose-RCA interactant) was precipitated out of the mixture solution by centrifugation. Then, supernatant thereof was removed, and the sugar-protein interactant was washed with PBS-T (0.05%) solution and water several times. […] The results were evaluated by visual observation and UV-Vis measurement. […]

Row | SMILES | IC50 (ConA [1]; read-out: IC50 after) [mM] | IC50 (ConA [1]; read-out: IC50 before) [mM] | Degree of dissociation (RCA120) | concentration of added sugar solution at which excellent RCA120 dissociation was observed (RCA120) [mM] | concentration of added sugar solution at which excellent ConA dissociation was observed (ConA [2]) [mM]
1 | CC(=O)N[C@H]1C(O)O[C@H](CO)[C@@H](O)[C@@H]1O (some centres unmarked) [GlcNAc, N-acetyl glucosamine] | 80.1 | 22.9 | – | – | –
2 | O=C[C@H](O)[C@@H](O)[C@@H](O)[C@H](O)CO [galactose] | – | – | Δ and X and ◯ | ≥ 25 | ≥ 50
